Laboratory results reported in patent publication EP3623370A1, “NOVEL TRF1 MODULATORS AND ANALOGUES THEREOF” (Fundación del Sector Público Estatal Centro Nacional de …, priority 2018, dated 2020).

Biological target: T1, TRF1 (Mus musculus, UniProt P70371)
T1 construct: endogenous in cells; host or cells: CHA9.3 primary murine lung cancer cell line
T1 sequence (P70371 1-421): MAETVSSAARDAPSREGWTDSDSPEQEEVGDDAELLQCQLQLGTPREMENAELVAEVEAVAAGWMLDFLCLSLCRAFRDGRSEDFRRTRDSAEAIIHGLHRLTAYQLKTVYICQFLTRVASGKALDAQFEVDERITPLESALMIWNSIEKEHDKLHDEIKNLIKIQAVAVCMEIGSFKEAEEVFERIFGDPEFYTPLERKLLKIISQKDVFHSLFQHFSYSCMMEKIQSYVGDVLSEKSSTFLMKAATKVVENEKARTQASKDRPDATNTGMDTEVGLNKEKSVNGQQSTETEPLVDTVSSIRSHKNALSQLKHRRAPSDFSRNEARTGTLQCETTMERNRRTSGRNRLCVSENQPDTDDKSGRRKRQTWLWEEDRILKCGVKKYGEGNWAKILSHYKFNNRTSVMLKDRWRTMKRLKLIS
Test: Measurement of TRF1 levels at telomere by immunofluorescence
Type: cell-based
Conditions: CHA9.3 cells (primary murine lung cancer cell line), compound at 10 µM, 24 hours, duplicates
Procedure: Assay was performed in CHA9.3, a primary murine cell line derived from a lung cancer. (Garcia-Beccaria et al., 2015). Cells were grown in DMEM (Gibco) supplemented with 10% FBS (fetal bovine serum), 1% penicillin/estreptomicen (Someglas 100U/ml) and 0.5% Amphotericin B (Gibco). Cells were incubated at 37 °C with 5% CO2. Cells were trypsinized with Trypsin-EDTA (Sigma) and washed with PBS (BioWhittaker) before counting and plating.
Cells were seeded in 10000 cells per 150 µl per well into black 96-well plates (Falcon) and incubated for 16 h at 37°C, 5% CO2. On day two, duplicates of each compound at 10 µM in DMSO were tested. The compounds were added to duplicate wells in 96-well cell plates using a FX BECKMAN robot (BeckmanCoulter) and were incubated at 37°C under CO2 atmosphere. After 24 hours, relative levels of TRF1 at telomeres were quantified by immunofluorescence. A rat monoclonal antibody against mouse TRF1 developed by the Monoclonal antibody unit at CNIO was used to detect endogenous TRF1.
First cells were fixed with 4 % formaldehyde (Sigma) in PBS (Alaos) during 13 minutes at room temperature (RT). After removal of the medium, cells were washed twice with PBS 10 minutes. Cells were permeabilized with a solution 0.2%Triton X-100 (Sigma) in PBS during 10 minutes at RT. After two more washes with PBS, cells were incubated with a solution 0.1%NaCitrate (Fluka) /0.1 %Triton X100 during 5 minutes at RT. After, two more washes with PBS cells were blocked with a solution 3% BSA (Sigma) in PBS-T, PBS with 0.05% Tween20 (Sigma), during 3 o 4 hours. Then, cells were incubated o/n at 4 °C with a dilution 1:750 of anti TRF1 antibody. After two washes of 10 minutes with PBS-T, cells were incubated with secondary antibody anti-rat 555 (Alexa Fluor) (1 :500) during 1 hour at RT: Then, 3 washes with PBS-T (0.05%) of 10 minutes and a last wash with PBS1X were performed. Nuclear staining was performed with Hoechst (Invitrogen) at de […] in PBS1X during10 minutes.
For quantification of TRF1 foci intensity, pictures of fixed cells were automatically acquired from each well by the Opera High Content Screening (HCS) system (Perkin Elmer). Forty images of random fields per well, with a 40xmagnification lens, were taken under non-saturating conditions. At least 1 × 10^3 cells were analyzed for each well. Briefly, images were segmented using the DAPI staining to generate masks matching cell nuclei from which-TRF1 foci were analyzed. Automatic analysis was performed with Acapela v2.0 software. Quantification of the inhibition of TRF1 levels at telomeres was performed with Pipeline platform.

SMILES	inhibition at 10 µM [%]
NC(Cc1cccc(Br)c1)c1csc(Nc2ncccn2)n1 (single isomer, unassigned) [Compound 6]	28.3
C#Cc1ccc(CC(N)c2csc(Nc3ncccn3)n2)cc1 (racemic) [Compound 66]	18.1
CC(=O)Nc1cccc(-c2sc(Nc3ncccn3)nc2C(N)Cc2ccccc2)c1 (centres unmarked) [Compound 83]	17.2
N[C@@H](Cc1ccccc1)c1csc(Nc2ncc(Br)cn2)n1 [Compound 34]	21
C#CCCC(=O)Nc1cnc(Nc2nc(C(N)Cc3ccc(F)cc3)cs2)nc1 (centres unmarked) [Compound 74]	15.5
C#CCOc1cccc(CC(N)c2csc(Nc3ncccn3)n2)c1 (racemic) [Compound 17]	31.6
C#Cc1cccc(C[C@@H](N)c2csc(Nc3ncccn3)n2)c1 [Compound 60]	24.8
N[C@@H](Cc1ccccc1)c1csc(Nc2ccccn2)n1 [Compound 35]	20.5
COc1cc(C)nc(Nc2nc([C@@H](N)Cc3ccccc3)cs2)n1 [Compound 37]	9.77
NC(Cc1cccc(Br)c1)c1csc(Nc2ncccn2)n1 (racemic) [Compound 5]	29.8
COCCOc1cccc(-c2sc(Nc3ncccn3)nc2[C@@H](N)Cc2ccccc2)c1 [Compound 84]	16.3
NC(Cc1ccc(Br)cc1)c1csc(Nc2ncccn2)n1 (racemic) [Compound 8]	32.4
NC(Cc1ccccc1)c1csc(Nc2ncccn2)n1 (racemic) [Compound 1]	27.3
C#CCOc1ccc(CC(N)c2csc(Nc3ncccn3)n2)cc1 (racemic) [Compound 20]	19.4
C#CCCCCOc1ccc(CC(N)c2csc(Nc3ncccn3)n2)cc1 (racemic) [Compound 26]	0
C#Cc1cnc(Nc2nc([C@@H](N)Cc3ccccc3)cs2)nc1 [Compound 64]	6.41
C#CCOc1cccc(-c2sc(Nc3ncccn3)nc2[C@@H](N)Cc2ccccc2)c1 [Compound 122]	5.33
C#Cc1ccc(C[C@H](N)c2csc(Nc3ncccn3)n2)cc1 [Compound 69]	7.7
NC(Cc1ccccc1Br)c1csc(Nc2ncccn2)n1 (single isomer, unassigned) [Compound 3]	25.4
C#CCOc1cccc(-c2sc(Nc3ncccn3)nc2[C@H](N)Cc2ccccc2)c1 [Compound 123]	10.9

SMILES	inhibition at 10 µM [%]
C#Cc1cccc(C[C@H](N)c2csc(Nc3ncccn3)n2)c1 [Compound 61]	30.5
NC(Cc1ccc(O)cc1)c1csc(Nc2ncccn2)n1 (centres unmarked) [Compound 120]	20
NC(Cc1ccccc1Br)c1csc(Nc2ncccn2)n1 (racemic) [Compound 2]	29.8
Nc1ccc(CC(N)c2csc(Nc3ncccn3)n2)cc1 (centres unmarked) [Compound 52]	10.5
C#Cc1cccc(-c2sc(Nc3ncccn3)nc2C(N)Cc2ccccc2)c1 (centres unmarked) [Compound 81]	19.7
N[C@@H](Cc1ccccc1)c1nc(Nc2ncccn2)sc1-c1cccc(O)c1 [Compound 89]	23
Cc1cnc(Nc2nc([C@@H](N)Cc3ccccc3)cs2)nc1 [Compound 36]	18.4
NC(Cc1cccc(O)c1)c1csc(Nc2ncccn2)n1 (centres unmarked) [Compound 105]	29.5
C#CCOc1cccc(C[C@H](N)c2csc(Nc3ncccn3)n2)c1 [Compound 19]	27.5
C#Cc1cnc(Nc2nc(C(N)Cc3ccccc3)cs2)nc1 (racemic) [Compound 62]	11.4
N[C@@H](Cc1ccccc1)c1nc(Nc2ncccn2)sc1Br [Compound 88]	29.9
NC(Cc1ccc([N+](=O)[O-])cc1)c1csc(Nc2ncccn2)n1 (racemic) [Compound 14]	0
Cc1ccnc(Nc2nc([C@@H](N)Cc3ccccc3)cs2)n1 [Compound 33]	30
C#Cc1cccc(CC(N)c2csc(Nc3ncccn3)n2)c1 (racemic) [Compound 58]	27.1
C#CCOc1cccc(-c2sc(Nc3ncccn3)nc2C(N)Cc2ccccc2)c1 (racemic) [Compound 87]	17.5
C#Cc1cnc(Nc2nc([C@H](N)Cc3ccccc3)cs2)nc1 [Compound 63]	11.7
Nc1cccc(-c2sc(Nc3ncccn3)nc2C(N)Cc2ccccc2Br)c1 (centres unmarked) [Compound 78]	27.8
NC(Cc1cccc(Cl)c1)c1csc(Nc2ncccn2)n1 (racemic) [Compound 12]	27.9
C#Cc1ccc(C[C@@H](N)c2csc(Nc3ncccn3)n2)cc1 [Compound 68]	31.2
C#CCOc1cccc(CC(N)c2csc(Nc3ncccn3)n2)c1 (single isomer, unassigned) [Compound 18]	33.8

Same assay, conditions: CHA9.3 cells (primary murine lung cancer cell line), compound at 10 µM, 24 hours, duplicates; 10 µM

SMILES	% inhibition of TRF1 levels [%]
NC(Cc1cccc(Br)c1)c1csc(Nc2ncccn2)n1 (single isomer, unassigned) [Compound 7]	28.55
NC(Cc1ccccc1Br)c1csc(Nc2ncccn2)n1 (single isomer, unassigned) [Compound 4]	24.91

Same assay, conditions: qualitative SAR statement in the description

SMILES	TRF1 inhibition activity (active / inactive, in words)
C#CCOc1cccc(CC(N)c2csc(Nc3ncccn3)n2)c1 (racemic) [Compound 17]	active
COc1cc(C)nc(Nc2nc([C@@H](N)Cc3ccccc3)cs2)n1 [Compound 37]	active
C#CCOc1ccc(CC(N)c2csc(Nc3ncccn3)n2)cc1 (racemic) [Compound 20]	active
C#CCOc1cccc(C[C@H](N)c2csc(Nc3ncccn3)n2)c1 [Compound 19]	active
C#CCOc1cccc(CC(N)c2csc(Nc3ncccn3)n2)c1 (single isomer, unassigned) [Compound 18]	active
